Test results from patent US4228158A, “Synthetic peptides having pituitary growth hormone releasing activity” (priority 1979, dated 1980).
Non-standard residues stand in square brackets, D forms with d. Residues, ends and D or L forms follow the SMILES beside them.

System: pituitaries removed from 20 day old female rats
Experiment: In vitro growth hormone release study (incubated rat pituitaries, GH radioimmunoassay)
Assay type: cell-based
Conditions: two pituitaries in 1 ml lactated Ringer's, 36° C., ± SEM
Experimental: Female rats of the CD-1 strain were housed in a constant temperature room at 24° C. with 14 hours light and 10 hours darkness. The rats were fed Purina brand rat chow ab libitum.
All studies were started between 0800 and 1000 hours.
Pituitaries were removed from 20 day old female rats. Two pituitaries were incubated at 36° C. in 1 ml of lactated Ringer's solution in 10 ml polytetrafluoroethylene beakers in a Dubnoff Shaker (90 cycles/min.). The pituitaries were incubated a total of 4 hours (P1, P2, I3, and I4). After two successive one hour preincubation periods (P1, P2), the peptide was added to the incubation medium hourly for 2 hours (I3, I4).
This in vitro study was performed in triplicate and a standard radioimmunoassay of growth hormone present in the incubation medium was performed in duplicate. The hormonal activity was calculated as the difference (Δ) of growth hormone (GH) levels between I3, I4 and P2, i.e., (I3 -P2) and (I4 -P2). P values were calculated by Students' t test using six growth hormone values for each value recorded.
The growth hormone radioimmunoassay reagents were distributed by the National Institute of Arthritis and […] (NIAMDD) program. The growth hormone values were calculated in terms of nanograms (ng) of a rat standard with a growth hormone potency of 0.61 units/mg.

CSCC[C@H](NC(=O)[C@H](Cc1ccccc1)NC(=O)[C@@H](Cc1c[nH]c2ccccc12)NC(=O)[C@@H](Cc1c[nH]c2ccccc12)NC(=O)[C@@H](N)Cc1ccc(O)cc1)C(N)=O [H2 N-Tyr-D-Trp-D-Trp-Phe-Met-CONH2] (H-Y[dW][dW]FM-NH2)
In vitro growth hormone release (ΔGH, I3-P2 and I4-P2) (1μg peptide, P <0.001): 1697 ± 222 ngΔGH/ml incubation medium | In vitro growth hormone release (ΔGH, I3-P2 and I4-P2) (20μg peptide, P <0.001): 1530 ± 208 ngΔGH/ml incubation medium | In vitro growth hormone release (ΔGH, I3-P2 and I4-P2) (100μg peptide, P ~0.02): 219 ± 113 ngΔGH/ml incubation medium
